We go through 19 molecules from patent publication US8273738B2, “Imidazole derivatives” (priority 2006, dated 2012).

Structures can show the parent of a compound that is named as a salt. Where two headings read alike, the source gives them in different places. A value given as a limit tells only on which side of the number the result lay.

In assay [1] the target is T1, CB2 receptor (Rattus norvegicus, UniProt Q9QZN9).
T1 construct: from tissue; host or cells: rat spleen membrane specimen
T1 sequence (Q9QZN9 1-360): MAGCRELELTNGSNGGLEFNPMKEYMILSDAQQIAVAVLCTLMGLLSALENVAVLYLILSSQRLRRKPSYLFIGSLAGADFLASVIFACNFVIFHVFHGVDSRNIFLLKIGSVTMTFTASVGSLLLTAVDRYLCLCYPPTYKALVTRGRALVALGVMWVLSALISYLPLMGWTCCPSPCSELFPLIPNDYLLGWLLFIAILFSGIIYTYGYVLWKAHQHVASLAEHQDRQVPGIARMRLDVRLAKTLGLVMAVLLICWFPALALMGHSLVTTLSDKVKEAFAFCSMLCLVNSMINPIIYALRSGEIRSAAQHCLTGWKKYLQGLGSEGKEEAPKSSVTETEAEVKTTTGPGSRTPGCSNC
The assay is described as follows: Cannabinoid CB2 receptor-binding activity ([3H]CP55940 binding experiment), rat spleen membrane specimen. The protocol:
A test was carried out according to the method of Hillard et al. [The Journal of Pharmacology and Experimental Therapeutics, vol. 289, p. 1427 (1999)]. A rat forebrain membrane specimen and a rat spleen membrane specimen were prepared and used in a binding experiment for a CB1 receptor and a binding experiment for a CB2 receptor, respectively. The membrane specimen (forebrain: final concentration of 0.5 mg of protein/mL, spleen: final concentration of 2 mg of protein/mL) was incubated together with a test compound and [^3H]CP55940 (manufactured by PerkinElmer) ((−)-cis-3-[2-hydroxy-[3,5-^3H]-4-(1,1-dimethylheptyl)phenyl]-trans-4-(3-hydroxypropyl)cyclohexanol)) (final concentration: 0.5 nmol/L) in an assay buffer (50 mmol/L Tris-HCl buffer (pH 7.4), 1 mmol/L EDTA and 3 mmol/L MgCl2) containing 0.1% bovine serum albumin at 25° C. for 1 hour, and the resulting mixture was filtered using a glass filter GF/C (manufactured by Whatman) treated with 1% polyethyleneimine. After the glass filter was washed with the assay buffer containing 0.2% bovine serum albumin, the radioactivity on the glass filter was measured using a liquid scintillation counter (TRI-CARB 2700TR, manufactured by Packard). The binding amount in the presence of 10 μmol/L […] (manufactured by Tocris) ((R)-(+)-[2,3-dihydro-5-methyl-3-(4-morpholinylmethyl)pyrrolo[1,2,3-de]-1,4-benzoxazin-6-yl]-1-naphthalenylmethanone) was considered to be a non-specific binding amount, and a difference between the total binding amount and the non-specific binding amount was considered to be a specific binding amount. The 50% inhibitory concentration (IC50 value) of the test compound against the specific binding was obtained, and the Ki value of the test substance was calculated from the 50% inhibitory concentration and the Kd value of the [^3H]CP55940 binding.

Assay [2] concerns the target T2, human CB2 receptor (Homo sapiens, UniProt P34972).
T2 construct: expressed in transfected cells
The assay is described as follows: GTPγS binding experiment via human CB2 receptor (membrane fraction of CHO-K1 cells). It is filed as biochemical. To be noted: for Emax: read-out: Emax value (maximum effect of CP55940 as 100%). The protocol: A test was carried out according to the method of Hillard et al. [The Journal of Pharmacology and Experimental Therapeutics, vol. 289, p. 1427 (1999)]. As for a membrane specimen, a membrane fraction was prepared from CHO-K1 cells in which a human CB2 receptor [Nature, vol. 365, pp. 61-65 (1993)] was stably expressed and used. The membrane specimen (final concentration: 40 μg of protein/mL) was incubated together with a test compound and [^35S]GTPγS (manufactured by PerkinElmer) (final concentration: 0.05 nmol/L) in an assay buffer (50 mmol/L Tris-HCl buffer (pH 7.4), 100 mmol/L NaCl, 1 mmol/L EDTA, 3 mmol/L MgCl2, and 0.1% bovine serum albumin) containing 20 μmol/L guanosine 5′-diphosphate (GDP) at 30° C. for 1 hour, and the resulting mixture was filtered using a glass filter GF/B (manufactured by Whatman). After the glass filter was washed with the assay buffer, the radioactivity on the glass filter was measured using a liquid scintillation counter (TRI-CARB 2700TR, manufactured by Packard). The binding amount in the presence of 10 μmol/L GTPγS was considered to be a non-specific binding amount, and a difference between the total binding amount and the non-specific binding amount was considered to be a specific binding amount. The ratio of increase in the specific binding amount in the presence of the test compound to the specific binding amount in the absence of the test compound was considered to be an agonistic activity of the test compound. The concentration of the test compound that produces 50% of the maximum effect (EC50 value) was calculated by performing a nonlinear regression analysis using the concentration-response data. The percentage of the maximum effect of the test compound (Emax value) was calculated by considering the maximum effect of CP55940 (manufactured by Tocris) measured at the same time as 100%.
In general terms: Binding of GTPγS marks nucleotide exchange on a G protein.

For assay [3], the system named is rats with chronic constriction nerve injury. The assay is described as follows: Analgesic effect in rats with chronic constriction nerve injury (von Frey filament). It counts as in vivo, rat. To be noted: oral, dose of 50 mg/kg or less, one hour after administration, von Frey filaments. The source says:
Rats with chronic constriction nerve injury were produced by partially modifying the method of Mosconi and Kruger et al. (Pain, vol. 64, pp. 37-57 (1996))
Male Crl:CD(SD) rats were used for the experiments. Under pentobarbital anesthesia, the sciatic nerve of the left hind limb of the rat was exfoliated, and the exfoliated region was wrapped with a polyethylene tube (trade name: Intramedic, size: PE-60, manufactured by Becton Dickinson and Company) of 2 mm in length. On days 14 to 21 after the surgery, the rats were placed in an acrylic connected cage with a wire mesh floor (900 mm (length)×210 mm (depth)×140 mm (height)) consisting of 4 cages connected in a row and allowed to acclimate to the environment for at least 20 minutes, and then, the pain was evaluated.
The von Frey filament (trade name: touch test sensory evaluator, Model number: model 58011, manufactured by Muromachi Kikai) was used to evaluate pain, and the results were calculated as a pain threshold. That is, by using a von Frey filament of different stimulus intensity, stimulation was given to the plantar surface of the injured side of rats with chronic constriction nerve injury, and the stimulus intensity to cause paw withdrawal response was obtained. Then, the 50% pain threshold (Paw withdrawal threshold) (g) was calculated by the up down method of Dixon [Annual Review of Pharmacology and Toxicology, vol. 20, pp. 441-462 (1980)].
In the evaluation of the test compound, rats with 50% pain threshold of less than 4 g were used, and the test compound was dissolved in a 0.5% aqueous methyl cellulose solution and orally administered at a dose of 5 mL/kg. One hour after the administration, the pain threshold was measured using von Frey filaments.

The mark [4] stands for this setting: rat spleen membrane, [3H]CP55940 0.5 nmol/L, 25° C., 1 hour, read-out: Ki value against the CB2 receptor.

T2 sequence (P34972 whole entry): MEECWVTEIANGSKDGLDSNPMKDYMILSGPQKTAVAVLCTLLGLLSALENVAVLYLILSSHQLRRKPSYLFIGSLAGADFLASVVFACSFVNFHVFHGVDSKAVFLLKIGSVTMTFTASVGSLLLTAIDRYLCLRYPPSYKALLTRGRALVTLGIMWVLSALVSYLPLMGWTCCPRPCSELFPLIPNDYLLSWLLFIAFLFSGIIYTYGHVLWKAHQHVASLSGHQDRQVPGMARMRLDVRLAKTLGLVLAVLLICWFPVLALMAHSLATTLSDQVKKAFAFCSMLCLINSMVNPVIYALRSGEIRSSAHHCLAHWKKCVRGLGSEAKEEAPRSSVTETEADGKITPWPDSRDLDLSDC

What is called Ki is a measure of affinity in units of concentration, obtained from inhibition or displacement. For `CC(C)C(=O)c1cccc(-c2cn(CC3CCOCC3)c(C(C)(C)C)n2)c1` [Compound 47, 1-{3-[2-tert-Butyl-1-(tetrahydropyran-4-ylmethyl)-1H-imidazol-4-yl]phenyl}-2-methylpropan-1-one hydrochloride], in assay [1] (setting [4]), the Ki is less than 1000 nM.

As a reminder, the EC50 is the concentration needed to bring the measured effect to its halfway point. Lower therefore signals higher potency in that assay. By Emax is commonly meant the greatest response seen or fitted, relative to the assay's reference. For `COc1cccc(-c2cn(CC3CCCCC3)c(CC(C)(C)C)n2)c1` [Compound 38, 1-Cyclohexylmethyl-2-(2,2-dimethylpropyl)-4-(3-methoxyphenyl)-1H-imidazole], in assay [2], the EC50 is less than 1000 nM and the Emax was greater than 30%. Molecule `CCN(CC)c1cccc(-c2cn(CC3CCOCC3)c(C(C)(C)C)n2)c1` [Compound 77, {3-[2-tert-Butyl-1-(tetrahydropyran-4-ylmethyl)-1H-imidazol-4-yl]phenyl}-diethylamine] registered a Ki in assay [1] of less than 1000 nM. In assay [2], the EC50 is less than 1000 nM and the Emax is greater than 30%.

As to `CCCN(CCC)C(=O)C=Cc1cn(CC2CCOCC2)c(C(C)(C)C)n1` [Compound 92, 3-(2-tert-Butyl-1-(tetrahydropyran-4-ylmethyl)-1H-imidazol-4-yl)-N,N-dipropylacrylamide], the Ki in assay [1] (setting [4]) was less than 1000 nM.

Regarding `CC(C)(C)c1nc(C=CC(=O)N(CC(F)(F)F)CC(F)(F)F)cn1CC1CCOCC1` [Compound 90, 3-(2-tert-Butyl-1-(tetrahydropyran-4-ylmethyl)-1H-imidazol-4-yl)-N,N-bis(2,2,2-trifluoroethyl)acrylamide], in assay [1] (setting [4]), the Ki is less than 1000 nM.

Consider `CN(CC#N)C(=O)c1cncc(-c2cn(CC3CCOCC3)c(C(C)(C)C)n2)n1` [Compound 207, 6-[2-tert-Butyl-1-(tetrahydropyran-4-ylmethyl)-1H-imidazol-4-yl]-N-cyanomethyl-N-methylpyrazine-2-carboxamide], for which the “50% pain threshold (paw withdrawal threshold)” value in assay [3] is recorded as “significantly increased the pain threshold”. For the same molecule, the Ki in assay [1] (setting [4]) is less than 1000 nM. With `CCN(CC)C(=O)c1cccc(-c2cn(CC3CCCCC3)c(C(C)(C)C)n2)c1` [Compound 32, 3-(2-tert-Butyl-1-cyclohexylmethyl-1H-imidazol-4-yl)-N,N-diethylbenzamide], in assay [1] (setting [4]), the Ki is less than 1000 nM. The same measure, in the same setting: the same measure for `CCOc1ccc(Cc2nc(-c3cccc(C#N)c3)cn2CC2CCOCC2)cc1` [Compound p, 3-[2-(4-Ethoxybenzyl)-1-(tetrahydropyran-4-ylmethyl)-1H-imidazol-4-yl]benzonitrile]: less than 1000 nM. In assay [1], `CC(C)(C)c1nc(-c2cccc(C(=O)N(CC(F)(F)F)CC(F)(F)F)c2)cn1CC1CCOCC1` [Compound 82, 3-(2-tert-Butyl-1-(tetrahydropyran-4-ylmethyl)-1H-imidazol-4-yl)-N,N-bis(2,2,2-trifluoroethyl)benzamide] registered a Ki of less than 1000 nM. In assay [2], the EC50 was less than 1000 nM and the Emax is greater than 30%. Consider `CC(C)(C)c1nc(-c2cccc([N+](=O)[O-])c2)cn1CC1CCCCC1` [Compound 28, 2-tert-Butyl-1-cyclohexylmethyl-4-(3-nitrophenyl)-1H-imidazole], for which the inhibitory constant (Ki) in assay [1] (setting [4]) was less than 1000 nM. Same read-out and setting: the figure for `CCOc1ccc(Cc2nc(-c3cccc(C(=O)N(CC)CC)c3)cn2CC2CCOCC2)cc1` [Compound q, 3-[2-(4-Ethoxybenzyl)-1-(tetrahydropyran-4-ylmethyl)-1H-imidazol-4-yl]-N,N-diethylbenzamide] is less than 1000 nM.

On to `CC(C)(C)c1nc(-c2cccc(C(=O)c3ccccc3)c2)cn1CC1CCOCC1` [Compound 48, {3-[2-tert-Butyl-1-(tetrahydropyran-4-ylmethyl)-1H-imidazol-4-yl]phenyl}phenylmethanone hydrochloride], for which, in assay [1], the Ki was less than 1000 nM. For the same molecule, in assay [2], the EC50 was less than 1000 nM and the maximal response (Emax) is greater than 30%. Consider `CCNC(=O)c1cccc(-c2cn(CC3CCOCC3)c(C(C)(C)C)n2)c1` [Compound 72, 3-(2-tert-Butyl-1-(tetrahydropyran-4-ylmethyl)-1H-imidazol-4-yl)-N-ethylbenzamide], for which, in assay [1], the Ki was less than 1000 nM. In assay [2], the EC50 is less than 1000 nM and the maximal effect (Emax) is greater than 30%. As for `CC(C)(C)c1nc(-c2cccc([N+](=O)[O-])c2)cn1CC1CCCCO1` (stereo not shown) [Compound 42, 2-tert-Butyl-4-(3-nitrophenyl)-1-(tetrahydropyran-2-ylmethyl)-1H-imidazole], the inhibition constant (Ki) in assay [1] is less than 1000 nM. Besides, in assay [2], the half-maximal effective concentration (EC50) was less than 1000 nM and the Emax was greater than 30%.

As to `CC(C)(C)c1nc(-c2cncc(Br)c2)cn1CC1CCOCC1` [Compound 84, 3-Bromo-5-[2-tert-Butyl-1-(tetrahydropyran-4-ylmethyl)-1H-imidazol-4-yl]pyridine], the Ki in assay [1] (setting [4]) was less than 1000 nM. Still for that read-out and setting: the figure for `CN(C)C(=O)c1cc(-c2cn(CC3(F)CCOCC3)c(C(C)(C)C)n2)cs1` [Compound 188, 4-[2-tert-Butyl-1-(4-fluorotetrahydropyran-4-ylmethyl)-1H-imidazol-4-yl]-N,N-dimethylthiophene-2-carboxamide] is less than 1000 nM. With `CC(=O)c1cccc(-c2cn(CC3CCOCC3)c(C(C)(C)C)n2)c1` [Compound 49, 1-{3-[2-tert-Butyl-1-(tetrahydropyran-4-ylmethyl)-1H-imidazol-4-yl]phenyl}ethanone], the Ki in assay [1] (setting [4]) is less than 1000 nM. In assay [2], the EC50 is less than 1000 nM and the Emax was greater than 30%. As for `CN(C)C(=O)c1cc(-c2cn(CC3CCOCC3)c(C(C)(C)C)n2)cs1` [Compound 133, 4-[2-tert-Butyl-1-(tetrahydropyran-4-ylmethyl)-1H-imidazol-4-yl]thiophene-2-carboxylic acid dimethylamide], in assay [3], the “50% pain threshold (paw withdrawal threshold)” value is recorded as “significantly increased the pain threshold”. Besides, the inhibition constant Ki in assay [1] (setting [4]) was less than 1000 nM. For the molecule `CCOc1ccc(Cc2nc(-c3cccc(OC)c3)cn2CC2CCOCC2)cc1` [Compound o, 2-(4-Ethoxybenzyl)-4-(3-methoxyphenyl)-1-(tetrahydro-pyran-4-ylmethyl)-1H-imidazole], in assay [1] (setting [4]), the Ki was less than 1000 nM.
